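Cultured in 96-well plates, cells were exposed to test compound for 48 hours across five concentrations. The concentration for 50% growth inhibition is given as GI50.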 The source made the active and inactive calls. Cut-off read from the data, not from the text of the source: active = GI50 up to about 1.1 µM and inactive = higher.
Columns and labels:
Assay in all cases: NCI-60 cell line screen, 48 h
786-0 = tested on: 786-0
CCRF-CEM = tested on: CCRF-CEM
HCT-116 = tested on: HCT-116
HCT-15 = tested on: HCT-15
HOP-62 = tested on: HOP-62
HOP-92 = tested on: HOP-92
M14 = tested on: M14
MCF7 = tested on: MCF7
MDA-MB-231 = tested on: MDA-MB-231
MOLT-4 = tested on: MOLT-4
Malme-3M = tested on: Malme-3M
OVCAR-4 = tested on: OVCAR-4
OVCAR-8 = tested on: OVCAR-8
PC-3 = tested on: PC-3
RXF 393 = tested on: RXF 393
SF-268 = tested on: SF-268
SF-539 = tested on: SF-539
SW-620 = tested on: SW-620
UACC-257 = tested on: UACC-257
UO-31 = tested on: UO-31

Measured: GI50

O=C(O)c1nc(-c2ccccc2)[nH]c1C(=O)O
active: CCRF-CEM 0.577 µM | MOLT-4 1.04 µM
14.3 µM: HCT-15
inactive: 786-0 10.6 µM | HCT-116 4.43 µM | HOP-62 16 µM | HOP-92 16.3 µM | M14 10.9 µM | MCF7 2.32 µM | MDA-MB-231 5.62 µM | Malme-3M 15.3 µM | OVCAR-4 16.8 µM | OVCAR-8 14.1 µM | PC-3 5.32 µM | RXF 393 13.5 µM | SF-268 16 µM | SF-539 7.8 µM | SW-620 2.47 µM | UACC-257 16.6 µM | UO-31 12.1 µM

CN(CCCNC(=O)c1nn(-c2ccccc2)c2c1Cc1ccccc1-2)CCCNC(=O)c1nn(-c2ccccc2)c2c1Cc1ccccc1-2
1.64 µM: HCT-15
active: CCRF-CEM 1 µM | M14 1.05 µM | MOLT-4 1.12 µM | OVCAR-4 0.929 µM
inactive: 786-0 1.65 µM | HCT-116 1.65 µM | HOP-62 1.58 µM | HOP-92 1.57 µM | MCF7 1.63 µM | MDA-MB-231 1.76 µM | Malme-3M 1.5 µM | OVCAR-8 1.73 µM | PC-3 1.69 µM | RXF 393 1.75 µM | SF-268 1.63 µM | SF-539 1.59 µM | SW-620 1.31 µM | UACC-257 1.72 µM | UO-31 1.61 µM

O=C(O)c1cccc(NC(C(=O)c2ccccc2)c2ccccc2)c1 (centres undefined)
> 100 µM: HCT-15
inactive: 786-0 > 100 µM | CCRF-CEM > 100 µM | HCT-116 > 100 µM | HOP-62 > 100 µM | HOP-92 34 µM | M14 > 100 µM | MCF7 > 100 µM | MDA-MB-231 > 100 µM | MOLT-4 > 100 µM | Malme-3M > 100 µM | OVCAR-8 > 100 µM | PC-3 > 100 µM | RXF 393 > 100 µM | SF-268 > 100 µM | SF-539 > 100 µM | SW-620 > 100 µM | UO-31 > 100 µM

Cn1c2ccc([N+](=O)[O-])cc2c(=O)c2c(O)cc(O)cc21
inactive: 786-0 19 µM | CCRF-CEM > 100 µM | HOP-92 32.7 µM | M14 60.4 µM | MCF7 13.7 µM | MDA-MB-231 57.3 µM | MOLT-4 45.2 µM | Malme-3M 18.6 µM | OVCAR-4 31.2 µM | OVCAR-8 13.2 µM | PC-3 > 100 µM | RXF 393 25.7 µM | SF-268 19.7 µM | SF-539 24.3 µM | SW-620 68.2 µM | UACC-257 > 100 µM | UO-31 59 µM
60.3 µM: HCT-15

CCOc1ccc(/N=N/C2C(=O)N(C(=O)CC(=O)Nc3ccc(Cl)cc3)N=C2C)cc1 (centres undefined)
inactive: 786-0 > 100 µM | CCRF-CEM > 100 µM | HCT-116 > 100 µM | HOP-62 > 100 µM | HOP-92 > 100 µM | M14 > 100 µM | MCF7 > 100 µM | MDA-MB-231 > 100 µM | Malme-3M > 100 µM | OVCAR-4 > 100 µM | OVCAR-8 64.1 µM | PC-3 > 100 µM | RXF 393 > 100 µM | SF-268 > 100 µM | SF-539 > 100 µM | SW-620 > 100 µM | UO-31 > 100 µM

N#CCCN(C(=O)Nc1ccccc1)[C@H]1CCCC[C@@H]1N(C(=O)Nc1ccccc1)c1ccccc1
> 100 µM: HCT-15
inactive: 786-0 > 100 µM | CCRF-CEM 30.1 µM | HCT-116 66.7 µM | HOP-62 > 100 µM | HOP-92 > 100 µM | M14 64.7 µM | MCF7 48.2 µM | MDA-MB-231 > 100 µM | MOLT-4 25.1 µM | Malme-3M > 100 µM | OVCAR-4 64.6 µM | OVCAR-8 > 100 µM | PC-3 48.1 µM | RXF 393 35.6 µM | SF-539 > 100 µM | SW-620 72.6 µM | UACC-257 > 100 µM | UO-31 54.2 µM

CCn1cnc2c(NC(C)=O)ncnc21
> 100 µM: HCT-15
inactive: 786-0 > 100 µM | CCRF-CEM > 100 µM | HCT-116 > 100 µM | HOP-62 > 100 µM | HOP-92 > 100 µM | M14 > 100 µM | MCF7 > 100 µM | MDA-MB-231 > 100 µM | MOLT-4 > 100 µM | Malme-3M > 100 µM | OVCAR-4 > 100 µM | OVCAR-8 > 100 µM | PC-3 > 100 µM | RXF 393 > 100 µM | SF-539 > 100 µM | SW-620 > 100 µM | UACC-257 > 100 µM | UO-31 > 100 µM

CC(=O)OC/C=C(/C=C/CNC1CCCCC1)OC(C)=O
19.2 µM: HCT-15
inactive: 786-0 11.5 µM | CCRF-CEM 4.34 µM | HCT-116 14.9 µM | HOP-62 16.5 µM | HOP-92 12.5 µM | M14 8.28 µM | MCF7 22 µM | MDA-MB-231 14.3 µM | MOLT-4 36.2 µM | Malme-3M 14.9 µM | OVCAR-4 20.8 µM | OVCAR-8 > 10 µM | PC-3 17.3 µM | RXF 393 17.9 µM | SF-268 17.1 µM | SF-539 11.6 µM | SW-620 14 µM | UACC-257 15.1 µM

O=C1OC2c3ccccc3C(=O)C2(c2ccccc2)N1c1ccccc1 (centres undefined)
> 200 µM: HCT-15
inactive: 786-0 > 200 µM | CCRF-CEM 128 µM | HCT-116 > 200 µM | HOP-62 > 200 µM | HOP-92 > 200 µM | M14 > 200 µM | MCF7 > 200 µM | MDA-MB-231 > 200 µM | MOLT-4 186 µM | Malme-3M > 200 µM | OVCAR-4 > 200 µM | OVCAR-8 > 200 µM | PC-3 183 µM | RXF 393 > 200 µM | SF-268 > 200 µM | SF-539 > 200 µM | SW-620 > 200 µM | UACC-257 > 200 µM | UO-31 72.6 µM

COC1C(OC(=O)/C=C/C=C/C=C/C=C/C(=O)O)CCC2(CO2)C1C1(C)OC1CC=C(C)C (centres undefined)
inactive: 786-0 20.5 µM | CCRF-CEM 21.4 µM | HCT-116 12.6 µM | HOP-62 62.1 µM | HOP-92 27.4 µM | M14 13.6 µM | MCF7 25.1 µM | MDA-MB-231 21.3 µM | MOLT-4 25.4 µM | Malme-3M 26.2 µM | OVCAR-4 21.1 µM | OVCAR-8 29.3 µM | PC-3 15.2 µM | RXF 393 48.8 µM | SF-268 34.5 µM | SF-539 42.3 µM | SW-620 21 µM | UACC-257 34 µM | UO-31 24.5 µM
24.2 µM: HCT-15

CC1=CCC(C)=Nc2nc3ccccc3n21
> 100 µM: HCT-15
inactive: 786-0 > 100 µM | CCRF-CEM > 100 µM | HCT-116 > 100 µM | HOP-62 > 100 µM | HOP-92 > 100 µM | M14 > 100 µM | MCF7 > 100 µM | MDA-MB-231 > 100 µM | MOLT-4 > 100 µM | Malme-3M > 100 µM | OVCAR-4 > 100 µM | OVCAR-8 > 100 µM | PC-3 > 100 µM | RXF 393 > 100 µM | SF-268 > 100 µM | SF-539 > 100 µM | SW-620 > 100 µM | UACC-257 > 100 µM | UO-31 23.2 µM

O[C@@]1(c2cccs2)c2cccc(Cl)c2[C@](O)(c2cccs2)c2cccc(Cl)c21
21.2 µM: HCT-15
inactive: 786-0 16.4 µM | CCRF-CEM 33.3 µM | HCT-116 13.2 µM | HOP-62 26.1 µM | HOP-92 67.9 µM | M14 15.4 µM | MCF7 18.5 µM | MDA-MB-231 17.3 µM | MOLT-4 15.9 µM | Malme-3M 17.8 µM | OVCAR-4 18.2 µM | OVCAR-8 55.7 µM | PC-3 19.1 µM | RXF 393 16.3 µM | SF-268 19.8 µM | SF-539 29.2 µM | SW-620 17.3 µM | UACC-257 15.2 µM | UO-31 46.7 µM

Cc1nnc2sc(-c3ccc(N)cc3)nn12
> 100 µM: HCT-15
inactive: 786-0 > 100 µM | CCRF-CEM > 100 µM | HCT-116 > 100 µM | HOP-62 > 100 µM | HOP-92 > 100 µM | M14 > 100 µM | MCF7 > 100 µM | MDA-MB-231 > 100 µM | MOLT-4 > 100 µM | Malme-3M > 100 µM | OVCAR-4 > 100 µM | OVCAR-8 > 100 µM | PC-3 > 100 µM | RXF 393 > 100 µM | SF-268 > 100 µM | SF-539 > 100 µM | SW-620 > 100 µM | UACC-257 > 100 µM | UO-31 > 100 µM

C=C(C)[C@@H]1CC[C@]2(C(=O)OC)CC[C@]3(C)[C@H](CC[C@@H]4[C@@]5(C)CC[C@H](O)C(C)(C)[C@@H]5CC[C@]43C)[C@@H]12 [METHYL BETULINATE]
20.5 µM: HCT-15
inactive: 786-0 19.7 µM | CCRF-CEM 19.4 µM | HCT-116 17.4 µM | HOP-62 18.8 µM | HOP-92 19.4 µM | M14 35.4 µM | MCF7 19.4 µM | MDA-MB-231 34 µM | MOLT-4 18.8 µM | Malme-3M 22.5 µM | OVCAR-8 21.5 µM | PC-3 16.7 µM | RXF 393 14.5 µM | SF-268 21.4 µM | SF-539 13.7 µM | SW-620 19.6 µM | UACC-257 19.3 µM | UO-31 22.8 µM
